Laboratory results from the supplement of paper PMC10307832.

Assays:
Experiment in all cases: relative viability (nuclei count vs DMSO), 5 days (fraction); higher = more cells survive
UMC-11 = system: UMC-11
Outline: (§1)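 Relative viability was taken as the ratio of nuclei in treated wells to nuclei in vehicle wells. Lung cancer cell lines in 1536-well plates received compounds by pin tool one day after seeding, either one drug alone or a fixed anchor-drug dose plus five library-drug doses (not always all listed) in √10 steps. Nuclei were counted on 4× images after 5 days of treatment, and values are medians of duplicate plates.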

NCI-H1395 = system: NCI-H1395
Outline: as §1

NCI-H1755 = system: NCI-H1755
Outline: as §1

HCC-15 = system: HCC-15
Outline: as §1

EKVX = system: EKVX
Outline: as §1

HCC-44 = system: HCC-44
Outline: as §1

NCI-H1648 = system: NCI-H1648
Outline: as §1

LCLC-103H = system: LCLC-103H
Outline: as §1

CCN(CC)CCCCNc1ncc2cc(-c3cc(OC)cc(OC)c3)c(NC(=O)NC(C)(C)C)nc2n1 + CC(=O)Nc1cccc(-n2c(=O)n(C3CC3)c(=O)c3c(Nc4ccc(I)cc4F)n(C)c(=O)c(C)c32)c1 [Trametinib] (partner 0.02 µM)
relative viability (UMC-11; first compound 0.01 µM): 0.686
relative viability (UMC-11; first compound 0.03162 µM): 0.483
relative viability (UMC-11; first compound 0.1 µM): 0.593
relative viability (UMC-11; first compound 0.3162 µM): 0.764
relative viability (UMC-11; first compound 1 µM): 0.695
relative viability (NCI-H1395; first compound 0.01 µM): 1.05
relative viability (NCI-H1395; first compound 0.03162 µM): 0.918
relative viability (NCI-H1395; first compound 0.1 µM): 0.907
relative viability (NCI-H1395; first compound 0.3162 µM): 0.63
relative viability (NCI-H1395; first compound 1 µM): 0.568
relative viability (NCI-H1755; first compound 0.01 µM): 0.83
relative viability (NCI-H1755; first compound 0.03162 µM): 0.776
relative viability (NCI-H1755; first compound 0.1 µM): 0.759
relative viability (NCI-H1755; first compound 0.3162 µM): 0.827
relative viability (NCI-H1755; first compound 1 µM): 0.55
relative viability (HCC-15; first compound 0.01 µM): 0.427
relative viability (HCC-15; first compound 0.03162 µM): 0.367
relative viability (HCC-15; first compound 0.1 µM): 0.414
relative viability (HCC-15; first compound 0.3162 µM): 0.42
relative viability (HCC-15; first compound 1 µM): 0.361
relative viability (EKVX; first compound 0.03162 µM): 0.4
relative viability (EKVX; first compound 0.1 µM): 0.365
relative viability (EKVX; first compound 0.3162 µM): 0.328
relative viability (EKVX; first compound 1 µM): 0.311
relative viability (HCC-44; first compound 0.01 µM): 0.987
relative viability (HCC-44; first compound 0.03162 µM): 1.08
relative viability (HCC-44; first compound 0.1 µM): 1.1
relative viability (HCC-44; first compound 0.3162 µM): 1.11
relative viability (HCC-44; first compound 1 µM): 0.931
relative viability (NCI-H1648; first compound 0.01 µM): 0.368
relative viability (NCI-H1648; first compound 0.03162 µM): 0.49
relative viability (NCI-H1648; first compound 0.1 µM): 0.396
relative viability (NCI-H1648; first compound 0.3162 µM): 0.46
relative viability (NCI-H1648; first compound 1 µM): 0.367
relative viability (LCLC-103H; first compound 0.01 µM): 0.691
relative viability (LCLC-103H; first compound 0.03162 µM): 0.719
relative viability (LCLC-103H; first compound 0.1 µM): 0.75
relative viability (LCLC-103H; first compound 0.3162 µM): 0.68
relative viability (LCLC-103H; first compound 1 µM): 0.579

O=c1cc(-c2cccc3c2Sc2ccccc2S3)oc(N2CCOCC2)c1 + CC(=O)Nc1cccc(-n2c(=O)n(C3CC3)c(=O)c3c(Nc4ccc(I)cc4F)n(C)c(=O)c(C)c32)c1 [Trametinib] (partner 0.02 µM)
relative viability (UMC-11; first compound 0.08 µM): 0.719
relative viability (UMC-11; first compound 0.253 µM): 0.827
relative viability (UMC-11; first compound 0.8 µM): 0.78
relative viability (UMC-11; first compound 2.53 µM): 0.638
relative viability (UMC-11; first compound 8 µM): 1.03
relative viability (NCI-H1395; first compound 0.08 µM): 0.883
relative viability (NCI-H1395; first compound 0.253 µM): 1.05
relative viability (NCI-H1395; first compound 0.8 µM): 1.14
relative viability (NCI-H1395; first compound 2.53 µM): 0.964
relative viability (NCI-H1395; first compound 8 µM): 1.06
relative viability (NCI-H1755; first compound 0.08 µM): 0.739
relative viability (NCI-H1755; first compound 0.253 µM): 0.867
relative viability (NCI-H1755; first compound 0.8 µM): 0.732
relative viability (NCI-H1755; first compound 2.53 µM): 0.789
relative viability (NCI-H1755; first compound 8 µM): 0.787
relative viability (HCC-15; first compound 0.08 µM): 0.362
relative viability (HCC-15; first compound 0.253 µM): 0.454
relative viability (HCC-15; first compound 0.8 µM): 0.369
relative viability (HCC-15; first compound 2.53 µM): 0.363
relative viability (HCC-15; first compound 8 µM): 0.38
relative viability (EKVX; first compound 0.08 µM): 0.554
relative viability (EKVX; first compound 0.253 µM): 0.332
relative viability (EKVX; first compound 0.8 µM): 0.296
relative viability (EKVX; first compound 2.53 µM): 0.332
relative viability (EKVX; first compound 8 µM): 0.336
relative viability (HCC-44; first compound 0.08 µM): 0.993
relative viability (HCC-44; first compound 0.253 µM): 1.01
relative viability (HCC-44; first compound 0.8 µM): 0.985
relative viability (HCC-44; first compound 2.53 µM): 1.01
relative viability (HCC-44; first compound 8 µM): 1.07
relative viability (NCI-H1648; first compound 0.253 µM): 0.515
relative viability (NCI-H1648; first compound 0.8 µM): 0.427
relative viability (NCI-H1648; first compound 8 µM): 0.389
relative viability (LCLC-103H; first compound 0.08 µM): 0.698
relative viability (LCLC-103H; first compound 0.253 µM): 0.713
relative viability (LCLC-103H; first compound 0.8 µM): 0.631
relative viability (LCLC-103H; first compound 2.53 µM): 0.662
relative viability (LCLC-103H; first compound 8 µM): 0.623
